This passage reports Ki and Kd results from ChEMBL document CHEMBL5316358, “Structure-Activity Relationships of Ligand Binding to Oxysterol-Binding Protein (OSBP) and OSBP-Related Protein 4” (J Med Chem, 2023).

The Ki is the equilibrium dissociation constant of an inhibitor or competing ligand from its target. Broadly, the Kd is the equilibrium constant for the complex coming apart. High values mean weaker binding, low ones tighter binding.

Assay [1] addresses T1, Oxysterol-binding protein 1 (Homo sapiens, UniProt P22059).
T1 sequence (P22059 whole entry): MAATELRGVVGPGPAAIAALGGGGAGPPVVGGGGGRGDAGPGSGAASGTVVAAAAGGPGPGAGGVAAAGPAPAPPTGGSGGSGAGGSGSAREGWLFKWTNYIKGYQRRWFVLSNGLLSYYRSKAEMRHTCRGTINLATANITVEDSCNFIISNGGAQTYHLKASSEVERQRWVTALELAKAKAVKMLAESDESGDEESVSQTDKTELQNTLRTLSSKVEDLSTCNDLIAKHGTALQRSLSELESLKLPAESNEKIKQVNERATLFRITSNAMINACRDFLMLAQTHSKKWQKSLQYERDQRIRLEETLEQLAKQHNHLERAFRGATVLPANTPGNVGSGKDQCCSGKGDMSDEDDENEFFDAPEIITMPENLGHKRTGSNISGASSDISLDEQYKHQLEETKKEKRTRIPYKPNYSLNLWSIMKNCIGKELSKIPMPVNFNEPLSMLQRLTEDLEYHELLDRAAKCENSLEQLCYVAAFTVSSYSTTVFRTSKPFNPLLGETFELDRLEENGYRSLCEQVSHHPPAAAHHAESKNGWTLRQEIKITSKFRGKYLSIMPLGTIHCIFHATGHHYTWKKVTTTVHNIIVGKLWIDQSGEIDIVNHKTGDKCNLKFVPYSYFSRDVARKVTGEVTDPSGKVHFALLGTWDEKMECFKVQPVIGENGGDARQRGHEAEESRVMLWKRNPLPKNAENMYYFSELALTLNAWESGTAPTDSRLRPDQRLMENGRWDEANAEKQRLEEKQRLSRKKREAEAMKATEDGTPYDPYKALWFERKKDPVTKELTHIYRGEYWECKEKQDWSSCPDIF
In words: Displacement of [3H]-25-OHC from human OSBP overexpressed in HEK293T cell lysate assessed as inhibition constant by competitive binding assay. On the technique in general: In a radioligand displacement assay an active substance lowers the binding of a labelled ligand.

For assay [2], the target named is T2, Oxysterol-binding protein 2 (Homo sapiens, UniProt Q969R2).
T2 sequence (Q969R2 whole entry): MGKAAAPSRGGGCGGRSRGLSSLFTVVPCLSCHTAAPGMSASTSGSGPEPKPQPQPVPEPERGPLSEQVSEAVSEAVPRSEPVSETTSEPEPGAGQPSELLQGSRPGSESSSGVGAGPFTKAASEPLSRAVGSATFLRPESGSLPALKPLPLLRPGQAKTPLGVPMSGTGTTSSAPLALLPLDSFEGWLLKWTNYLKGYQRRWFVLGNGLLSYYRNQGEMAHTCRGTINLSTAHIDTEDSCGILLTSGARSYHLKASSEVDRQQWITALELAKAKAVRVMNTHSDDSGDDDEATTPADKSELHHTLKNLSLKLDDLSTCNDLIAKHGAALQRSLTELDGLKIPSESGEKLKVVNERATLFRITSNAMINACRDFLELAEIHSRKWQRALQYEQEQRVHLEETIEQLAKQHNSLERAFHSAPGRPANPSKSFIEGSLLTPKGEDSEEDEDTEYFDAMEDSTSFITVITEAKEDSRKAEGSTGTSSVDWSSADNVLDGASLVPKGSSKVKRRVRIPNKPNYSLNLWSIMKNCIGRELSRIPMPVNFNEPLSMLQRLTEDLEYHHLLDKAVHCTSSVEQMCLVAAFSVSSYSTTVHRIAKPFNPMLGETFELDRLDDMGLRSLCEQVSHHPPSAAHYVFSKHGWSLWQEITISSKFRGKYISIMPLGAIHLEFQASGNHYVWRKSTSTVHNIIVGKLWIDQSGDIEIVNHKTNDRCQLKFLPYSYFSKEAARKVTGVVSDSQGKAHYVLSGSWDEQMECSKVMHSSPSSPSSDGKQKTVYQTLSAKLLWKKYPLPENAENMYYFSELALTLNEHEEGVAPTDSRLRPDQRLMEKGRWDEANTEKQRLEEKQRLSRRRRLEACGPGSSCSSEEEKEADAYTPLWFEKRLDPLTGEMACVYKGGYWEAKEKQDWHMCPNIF
Briefly: Displacement of [3H]-25-OHC from human ORP4 overexpressed in HEK293T cell lysate assessed as inhibition constant by competitive binding assay. Type of assay: subcellular.

The target of assay [3] is T1, Oxysterol-binding protein 1. In words: Displacement of [3H]-25-OHC from human OSBP overexpressed in HEK293T cell lysate assessed as inhibition constant. Type of assay: subcellular.
The target in assay [4] is T2, Oxysterol-binding protein 2. Briefly: Displacement of [3H]-25-OHC from human ORP4 overexpressed in HEK293T cell lysate assessed as inhibition constant. Type of assay: subcellular.
The target of assay [5] is T1, Oxysterol-binding protein 1. Briefly: Binding affinity to human OSBP.

Consider `C[C@]12CC[C@H](O)CC1=CC[C@@H]1[C@@H]2CC[C@]2(C)C([C@H](O)CO)=CC[C@@H]12`, for which the Ki in assay [1] and in assay [2] was more than 50 µM in each case.

`CC(C)[C@@H](O)CC[C@@H](C)[C@H]1CC[C@H]2[C@@H]3CC=C4C[C@@H](O)CC[C@]4(C)[C@H]3CC[C@]12C`: the Ki in assay [2] worked out at 0.4 µM.

Turning to `C[C@H](CO)CCC[C@@H](C)[C@H]1CC[C@H]2[C@@H]3CC=C4C[C@@H](O)CC[C@]4(C)[C@H]3CC[C@]12C`, the Ki in assay [2] was more than 0.87 µM.

`CCCC[C@](C)(O)[C@H]1CC[C@H]2[C@@H]3CC=C4C[C@@H](O)CC[C@]4(C)[C@H]3CC[C@@]21C`: the Ki in assay [1] is more than 10 µM; in assay [2], more than 30 µM.

In the case of `CC(C)CC[C@@H](O)[C@@H](C)[C@H]1CC[C@H]2[C@@H]3CC=C4C[C@@H](O)CC[C@]4(C)[C@H]3CC[C@]12C` [22(R)-HYDROXYCHOLESTEROL], in assay [2], the Ki was more than 50 µM.

In the case of `CCCCC[C@](C)(O)[C@H]1CC[C@H]2[C@@H]3CC=C4C[C@@H](O)CC[C@]4(C)[C@H]3CC[C@@]21C`, the Ki in assay [1] worked out at 0.6 µM; in assay [2] it was 0.78 µM.

In the case of `CC(C)CCN[C@@H](C)[C@H]1CC[C@H]2[C@@H]3CC=C4C[C@@H](O)CC[C@]4(C)[C@H]3CC[C@]12C`, the inhibition constant (Ki) in assay [1] and in assay [2] was more than 100 µM each time.

As to `CC(C)C[C@@](C)(O)[C@H]1CC[C@H]2[C@@H]3CC=C4C[C@@H](O)CC[C@]4(C)[C@H]3CC[C@@]21C`, the Ki in assay [1] and in assay [2] was more than 50 µM in each case.

In the case of `C[C@@H](CO)CCC[C@@H](C)[C@H]1CC[C@H]2[C@@H]3CC=C4C[C@@H](O)CC[C@]4(C)[C@H]3CC[C@]12C`, in assay [2], the Ki is more than 1 µM.

For the compound `C[C@H](CCCC(C)(C)O)[C@H]1CC[C@H]2[C@@H]3CCC4C[C@@H](O)CC[C@]4(C)[C@H]3CC[C@]12C` (stereo partly drawn), the inhibition constant Ki in assay [2] amounted to 0.051 µM.

For `CC[C@](C)(O)[C@H]1CC[C@H]2[C@@H]3CC=C4C[C@@H](O)CC[C@]4(C)[C@H]3CC[C@@]21C`, the Ki in assay [1] and in assay [2] was more than 30 µM each time.

Regarding `C[C@@H]1[C@@]2(CC[C@](C)(O)CO2)O[C@H]2C=C3[C@@H]4[C@@H](O)C[C@H]5Cc6nc7c(nc6C[C@]5(C)[C@H]4C[C@@H](O)[C@]3(C)[C@]21O)C[C@@H]1CC[C@H]2[C@H]3C[C@@H]4O[C@@]5(CCC(C)(C)O5)[C@@H](C)[C@@H]4[C@@]3(C)[C@H](O)C[C@@H]2[C@@]1(C)C7`, the Ki was 0.028 µM in assay [3] and more than 0.36 µM in assay [4].

As to `C[C@H](CCCC(C)(C)O)[C@H]1CC[C@H]2[C@@H]3[C@H](O)C=C4C[C@@H](O)CC[C@]4(C)[C@H]3CC[C@]12C`, the Ki in assay [1] was found to be 0.078 µM; in assay [2] it was 0.092 µM.

As to `CC(C)CC[C@H](O)[C@@H](C)[C@H]1CC[C@H]2[C@@H]3CC=C4C[C@@H](O)CC[C@]4(C)[C@H]3CC[C@]12C`, the inhibition constant (Ki) in assay [2] is more than 3 µM.

For `CCCCCCCC[C@](C)(O)[C@H]1CC[C@H]2[C@@H]3CC=C4C[C@@H](O)CC[C@]4(C)[C@H]3CC[C@@]21C`, the Ki in assay [1] is more than 10 µM; in assay [2], more than 20 µM.

As to `CC(C)CC[C@@H](O)[C@](C)(O)[C@H]1CC[C@H]2[C@@H]3CC=C4C[C@@H](O)CC[C@]4(C)[C@H]3CC[C@]12C`, the figures for the Ki in assay [1] and in assay [2] were more than 30 µM and more than 15 µM, respectively.

`CC(C)CCC[C@](C)(O)[C@H]1CC[C@H]2[C@@H]3CC=C4C[C@@H](O)CC[C@]4(C)[C@H]3CC[C@@]21C`: the results for the Ki in assay [1] and in assay [2] were 0.13 µM and 0.32 µM, respectively.

As for `C[C@@H]1[C@]2(O[C@H]3C=C4[C@@H]5CC[C@H]6Cc7nc8c(nc7C[C@]6(C)[C@H]5C[C@@H](O)[C@]4(C)[C@]31O)C[C@@H]1CC[C@H]3C4=CC[C@@H]5[C@H](C)[C@@]6(OC[C@]45C(=O)C[C@@H]3[C@@]1(C)C8)OC(C)(C)C[C@H]6O)O[C@](C)(CO)C[C@H]2O` [CEPHALOSTATIN 1], the Ki came out at 0.039 µM in assay [3] (hek293t) and 0.078 µM in assay [4] (hek293t).

In the case of `CCN(CC)CCO[C@H]1CC[C@@]2(C)C(=CC[C@@H]3[C@@H]2CC[C@]2(C)C(=O)CC[C@@H]32)C1`, in assay [2], the Ki was more than 50 µM.

Turning to `C[C@H](O)[C@H]1CC[C@H]2[C@@H]3CC=C4C[C@@H](O)CC[C@]4(C)[C@H]3CC[C@]12C`, the Ki in assay [2] was more than 100 µM.

Take `COc1ccc(C(=O)O[C@H]2[C@H](O[C@@H]3[C@@H](OC(C)=O)[C@H](O[C@H]4C[C@H]5[C@@H]6CC=C7C[C@@H](O)CC[C@]7(C)[C@H]6CC[C@]5(C)[C@@]4(O)[C@H](C)C(=O)CCC(C)C)OC[C@@H]3O)OC[C@@H](O)[C@@H]2O)cc1`: the Ki turned out to be 0.016 µM in assay [3] and 0.071 µM in assay [4].

Regarding `CC(C)=CCC/C(C)=C/Cc1c(O)cc(/C=C/c2cc(O)c3c(c2)C[C@@H]2C(C)(C)[C@H](O)[C@H](O)C[C@@]2(C)O3)cc1O` [SCHWEINFURTHIN A], the Ki was determined as 0.068 µM in assay [3] (hek293t) and 2.6 µM in assay [4] (hek293t).

With `CC(C)CC[C@](C)(O)[C@H]1CC[C@H]2[C@@H]3CC=C4C[C@@H](O)CC[C@]4(C)[C@H]3CC[C@@]21C`, the Ki in assay [1] was 1.3 µM; in assay [2], more than 2 µM.

Take `CC1(C)C[C@H]2[C@@H]3CC=C4C[C@@H](OC5CCCCO5)CC[C@]4(C)[C@H]3CC[C@]2(C)[C@H]1O` (stereo partly drawn): the inhibition constant (Ki) in assay [3] turned out to be 0.022 µM; in assay [4] it was 0.098 µM.

Compound `C[C@H](CCCC(C)(C)O)[C@H]1CC[C@H]2[C@@H]3CC=C4C[C@@H](O)CC[C@]4(C)[C@H]3CC[C@]12C` displayed a dissociation constant (Kd) in assay [5] of 0.022 µM.

Take `C[C@@H]1CC[C@@]2(OC1)O[C@H]1C[C@H]3[C@@H]4CC=C5C[C@@H](O)CC[C@]5(C)[C@H]4CC[C@]3(C)[C@H]1[C@@H]2C` [DISOGENIN]: in assay [1], the Ki was more than 100 µM.

In the case of `CC(C)(O)[C@H]1O[C@H]2CC[C@@]3(C)[C@@](O)(CC[C@H]4Cc5c([nH]c6ccccc56)[C@@]43C)C2=CC1=O` [PAXILLINE], the values for the Ki in assay [1] and in assay [2] were more than 50 µM and more than 30 µM, respectively.

`CCCCCCCC[C@@](C)(O)[C@H]1CC[C@H]2[C@@H]3CC=C4C[C@@H](O)CC[C@]4(C)[C@H]3CC[C@@]21C`: the Ki in assay [1] and in assay [2] was more than 100 µM in each case.

Take `CC(C)C[C@](C)(O)[C@H]1CC[C@H]2[C@@H]3CC=C4C[C@@H](O)CC[C@]4(C)[C@H]3CC[C@@]21C`: the Ki is more than 20 µM in assay [1] and more than 30 µM in assay [2].
